Laboratory results reported in patent US10206944B2, “Chondroitin for use in medicine” (ALTERGON S.A., priority 2012, dated 2019).

Tests used:
[1] = test system: Escherichia coli strain ATCC 25922; test: Inhibition of bacterial growth on plate, E. coli; assay type: cell-based
Procedure: The antibacterial activity of chondroitin (C) and chondroitin sulphate (CS) on the growth of Escherichia coli ATCC 25922 and Enterococcus faecalis ATCC 19433 on a solid medium in vitro was examined. The concentrations explored ranged from 40 μg/mL to 40 mg/mL of C or CS as final concentrations in the medium. Brain-heart infusion (Oxoid) was used as culture medium for E. coli ATCC 25922, and M17 (Oxoid) for E. faecalis ATCC 19433; both media were adjusted to the same pH and the same osmolarity before being solidified by adding agar and cooled. 100 μL of a bacterial suspension containing 10^2, 10^3 or 10^4 bacteria/mL was plated as inoculum. The plates inoculated were incubated in shakers in air at 37° C. for 16 h. The number of colonies was then counted on control plates in the absence of the substances under study and on plates at the various concentrations of C and CS. The data from the experiments for the two micro-organisms, conducted in triplicate for each of the conditions, are shown in tables 7 and 8.

[2] = test system: dogs suffering from DJD; test: Treatment of degenerative joint disease in dogs; assay type: in vivo, dog; settings: dogs with DJD, 15 mg/Kg/day with food, 6 months; scale of 1 to 10; placebo 2.5±1.3
Procedure: The therapeutic potential of chondroitin in the treatment of joint disease was evaluated in the dog, an experimental model wherein degenerative or inflammatory orthopaedic problems associated with degenerative joint disease (DJD) are particularly recurrent at both young and geriatric age.
The study was conducted on 90 animals with a mean weight of 30±10 Kg, a mean age of about 8 years, of different breeds, both males and females, all suffering from DJD of the shoulder, hip and/or stifle, randomised into three groups of 30 animals treated with 15 mg/Kg/day of chondroitin (C group), 15 mg/Kg/day of chondroitin sulphate (CS group) or 15 mg/Kg/day of starch (placebo group). The animals received the daily dose with their food. An X-ray and a set of diagnostic tests for DJD were conducted on a preliminary basis on all the animals included in the study. […] The study continued for 6 months; during the treatment, the animals, which were cared for by their owners, were monitored by three veterinary surgeons who independently evaluated the state of the animals. Every month the animals' owners and the three veterinary surgeons filled in a questionnaire, allocating a score on a scale of 1-5 to a set of parameters. Once a month the owners evaluated, on a scale of 1 to 5, the lameness of the animal, its willingness to play, load tolerance, and behaviour indicating pain symptoms. […]

[3] = test system: HT-1376 cells; test: Flow cytometry of apoptotic and necrotic cells (Annexin V-FITC/PI); assay type: cell-based, human; design: unit not given here; settings: 48 h, alone or combined
Procedure: Flow cytometry was used to evaluate the quantity of apoptotic or necrotic cells. Fluorescein isothiocyanate (Annexin V-FITC) combined with propidium iodide (PI) was used as marker; the apoptotic cells were Annexin V-FITC positive and PI negative, and the necrotic cells were Annexin V-FITC positive and PI positive. The cells were labelled by incubating them with Annexin V-FITC (Diagnostics MedSystems) and PI (Sigma) in a binding buffer (10 mM HEPES, pH 7.4, 150 mM NaCl, 5 mM KCl, 1 mM MgCl2, 2.5 mM CaCl2) for 10 min at ambient temperature, and then washing and resuspending the cell material in the same buffer. The apoptotic and necrotic cells were analysed by flow cytometry (FACScan, Becton-Dickinson), acquiring an average of 2×10^4 events per sample, with determinations in triplicate on three separate experiments.

[4] = 40 μg/mL, 10 bacteria inoculated
[5] = 40 μg/mL, 100 bacteria inoculated
[6] = 40 μg/mL, 1000 bacteria inoculated
[7] = 400 μg/mL, 10 bacteria inoculated
[8] = 400 μg/mL, 100 bacteria inoculated
[9] = 400 μg/mL, 1000 bacteria inoculated
[10] = 4 mg/mL, 10 bacteria inoculated
[11] = 4 mg/mL, 100 bacteria inoculated
[12] = 4 mg/mL, 1000 bacteria inoculated
[13] = 40 mg/mL, 10 bacteria inoculated
[14] = 40 mg/mL, 100 bacteria inoculated
[15] = 40 mg/mL, 1000 bacteria inoculated
[16] = 0.04 μg/mL of C or CS and 0.15 μg/mL of GEM
[17] = 5.7 μg/mL of C or CS and 1.7 μg/mL of MMC

| Substance | Inhibition factor ([1]; 40 μg/mL) | CFU after 16 h [1, 4] | CFU after 16 h [1, 5] | CFU after 16 h [1, 6] | Inhibition factor ([1]; 400 μg/mL) | Qualitative valuation of inhibition ([1]; 400 μg/mL) | CFU after 16 h [1, 7] | CFU after 16 h [1, 8] | CFU after 16 h [1, 9] | Inhibition factor ([1]; 4 mg/mL) | Qualitative valuation of inhibition ([1]; 4 mg/mL) | CFU after 16 h [1, 10] | CFU after 16 h [1, 11] | CFU after 16 h [1, 12] | Inhibition factor ([1]; 40 mg/mL) | Qualitative valuation of inhibition ([1]; 40 mg/mL) | CFU after 16 h [1, 13] | CFU after 16 h [1, 14] | CFU after 16 h [1, 15] | average overall score for the regression of the disease [2] | further results |
| --- | --- | --- | --- | --- | --- | --- | --- | --- | --- | --- | --- | --- | --- | --- | --- | --- | --- | --- | --- | --- | --- |
| chondroitin | 1.3 | 7 ± 2 CFU | 80 ± 5 CFU | 800 ± 70 CFU | 9 | significant | 2 ± 1 CFU | 10 ± 2 CFU | 120 ± 30 CFU | 66 | high | 0 CFU | 1 ± 1 CFU | 20 ± 4 CFU | 1000 | total inhibition of growth | 0 CFU | 0 CFU | 0 CFU | 8.5±2.1 | Qualitative valuation of inhibition ([1]; 40 μg/mL): mild; Cell state: apoptotic advanced [3, 16]: 7 ± 2; Cell state: apoptotic early [3, 16]: 6 ± 1; Cell state: necrotic [3, 16]: 28 ± 3; Cell state: viable [3, 16]: 59 ± 2; Cell state: apoptotic advanced [3, 17]: 2 ± 1; Cell state: apoptotic early [3, 17]: 1 ± 1; Cell state: necrotic [3, 17]: 41 ± 2; Cell state: viable [3, 17]: 56 ± 3 |
| chondroitin sulphate [CS, reference compound] | 1 | 7 ± 2 CFU | 85 ± 7 CFU | 860 ± 70 CFU | 2 | mild | 5 ± 1 CFU | 50 ± 5 CFU | 400 ± 70 CFU | 10 | significant | 0 CFU | 9 ± 2 CFU | 100 ± 10 CFU | 330 | high | 0 CFU | 0 CFU | 3 ± 1 CFU | 5.3±2.3 | Cell state: apoptotic advanced [3, 16]: 5 ± 1; Cell state: apoptotic early [3, 16]: 4 ± 1; Cell state: necrotic [3, 16]: 23 ± 2; Cell state: viable [3, 16]: 68 ± 4; Cell state: apoptotic advanced [3, 17]: 1 ± 1; Cell state: apoptotic early [3, 17]: 1 ± 1; Cell state: necrotic [3, 17]: 36 ± 2; Cell state: viable [3, 17]: 62 ± 4 |
